Data reported in publication PMC6147133, “The Toxoplasma gondii Active Serine Hydrolase 4 Regulates Parasite Division and Intravacuolar Parasite Architecture” (mSphere, 2018).

Molecular target: T1, rASH4 (ASH4) (Toxoplasma gondii, UniProt A0A125YZ56)
T1 construct: full-length ORF from RH cDNA, N-terminal 6xHis tag (pET-28A, pIF22), E. coli BL21-CodonPlus(DE3)-RIL; active-site S124, G2 myristoylation site
T1 sequence (A0A125YZ56 1-260): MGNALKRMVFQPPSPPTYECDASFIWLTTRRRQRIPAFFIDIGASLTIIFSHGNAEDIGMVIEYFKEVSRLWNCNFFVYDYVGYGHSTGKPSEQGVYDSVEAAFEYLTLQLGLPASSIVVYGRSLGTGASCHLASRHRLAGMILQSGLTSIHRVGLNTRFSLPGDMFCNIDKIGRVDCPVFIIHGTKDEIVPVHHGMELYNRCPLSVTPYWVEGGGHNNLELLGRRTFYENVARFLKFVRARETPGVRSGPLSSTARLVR
Test: fluorogenic hydrolysis assay
Assay type: biochemical
Details: 10 uM substrate, 150 nM enzyme

CC(=O)Oc1ccc2c(C)cc(=O)oc2c1 [4MU-acetate, 4-methyl-2-oxo-2H-chromen-7-yl acetate]
fluorogenic hydrolysis assay: with the two-carbon acetyl ester having the highest rate of hydrolysis
